The record followed here is patent US9290451B2 (Hoffmann-La Roche Inc., priority 2011, dated 2016).

SMILES strings stand for the structures. pEC50: −log10 of the molar value. Like-named read-outs stand apart in the source and are kept apart here. Where only a bound is given, the exact number is not on record here.

For test [1], the target named is human CB2 receptors (Homo sapiens (Human), UniProt P34972). The experiment in a line: cAMP assay, CHO cells expressing human CB2 receptors. It counts as cell-based. How it is done: (§1) CHO cells expressing human CB1 or CB2 receptors are seeded 17-24 hours prior to the experiment 50.000 cells per well in a black 96 well plate with flat clear bottom (Corning Costar #3904) in DMEM (Invitrogen No. 31331), 1×HT supplement, with 10% fetal calf serum and incubated at 5% CO2 and 37° C. in a humidified incubator. The growth medium was exchanged with Krebs Ringer Bicarbonate buffer with 1 mM IBMX and incubated at 30° C. for 30 min Compounds were added to a final assay volume of 100 μl and incubated for 30 min at 30° C. Using the cAMP-Nano-TRF detection kit the assay (Roche Diagnostics) was stopped by the addition of 50 μl lysis reagent (Tris, NaCl, 1.5% Triton X100, 2.5% NP40, 10% NaN3) and 50 μl detection solutions (20 μM mAb Alexa700-cAMP 1:1, and 48 μM Ruthenium-2-AHA-cAMP) and shaken for 2 h at room temperature. The time-resolved energy transfer is measured by a TRF reader (Evotec Technologies GmbH), equipped with a ND:YAG laser as excitation source. The plate is measured twice with the excitation at 355 nm and at the emission with a delay of 100 ns and a gate of 100 ns, total exposure time 10 s at 730 (bandwidth 30 nm) or 645 nm (bandwidth 75 nm), respectively. The FRET signal is calculated as follows: FRET=T730-Alexa730-P(T645-B645) with P═Ru730-B730/Ru645-B645, where T730 is the test well measured at […], T645 is the test well measured at 645 nm, B730 and B645 are the buffer controls at 730 nm and 645 nm, respectively. cAMP content is determined from the function of a standard curve spanning from 10 μM to 0.13 nM cAMP.
(§2) EC50 values were determined using Activity Base analysis (ID Business Solution, Limited). The EC50 values for a wide range of cannabinoid agonists generated from this assay for reference compounds were in agreement with the values published in the scientific literature.
On the technique in general: Cyclic AMP is a second messenger, typically raised through Gs and lowered through Gi signalling.

The target of test [2] is human CB1 receptors (Homo sapiens (Human), UniProt P21554). The experiment in a line: cAMP assay, CHO cells expressing human CB1 receptors. In kind it is cell-based. As to conditions: CHO cells expressing human CB1, cAMP; read-out: human CB1 EC50. The method, then: as §1, §2
Where [3] appears, read: CHO cells expressing human CB2, cAMP, read-out: human CB2 EC50.

Sequence of human CB1 receptors (P21554 whole entry): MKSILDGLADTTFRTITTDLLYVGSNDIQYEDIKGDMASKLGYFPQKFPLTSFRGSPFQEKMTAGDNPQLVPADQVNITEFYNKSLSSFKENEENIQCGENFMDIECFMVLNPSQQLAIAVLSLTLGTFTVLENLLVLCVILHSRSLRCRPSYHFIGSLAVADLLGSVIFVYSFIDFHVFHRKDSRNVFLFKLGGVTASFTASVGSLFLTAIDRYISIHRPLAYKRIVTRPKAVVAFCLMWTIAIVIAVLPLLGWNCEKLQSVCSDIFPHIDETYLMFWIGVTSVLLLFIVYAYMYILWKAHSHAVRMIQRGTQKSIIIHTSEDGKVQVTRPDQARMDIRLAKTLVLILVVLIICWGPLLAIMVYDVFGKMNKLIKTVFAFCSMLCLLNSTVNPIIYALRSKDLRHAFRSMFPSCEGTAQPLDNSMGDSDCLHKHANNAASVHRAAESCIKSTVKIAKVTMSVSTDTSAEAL
Sequence of human CB2 receptors (P34972 whole entry): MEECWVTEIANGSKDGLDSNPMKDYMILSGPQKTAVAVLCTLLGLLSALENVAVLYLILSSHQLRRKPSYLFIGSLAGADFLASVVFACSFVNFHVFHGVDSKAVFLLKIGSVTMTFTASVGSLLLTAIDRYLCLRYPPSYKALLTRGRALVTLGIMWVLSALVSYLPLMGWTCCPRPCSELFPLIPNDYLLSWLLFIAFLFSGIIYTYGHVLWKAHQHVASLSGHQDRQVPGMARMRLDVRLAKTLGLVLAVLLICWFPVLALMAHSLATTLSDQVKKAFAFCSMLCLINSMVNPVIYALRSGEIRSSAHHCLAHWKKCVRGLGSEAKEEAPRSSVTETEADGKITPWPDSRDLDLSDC

One may read the pEC50 as −log10 of the EC50, conventionally taken in molar units. `Cc1nc(C(NC(=O)c2cccc(-c3ccc(F)c(Cl)c3)n2)C2CC2)no1` (racemic) [Example 232, 6-(3-Chloro-4-fluoro-phenyl)-pyridine-2-carboxylic acid [cyclopropyl-(5-methyl-[1,2,4]oxadiazol-3-yl)-methyl]-amide]: the pEC50 was 7.82 in test [1] (setting [3]) and 5.79 in test [2].

Regarding `O=C(N[C@@H](CC1CC1)C(=O)NN1CCC(O)C1)c1ccc(C2CC2)c(OCC2CC2)n1` (single isomer, unassigned; (+)) [Example 379], the pEC50 in test [1] was 7.58. In the case of `O=C(N[C@@H](CC1CC1)C(=O)NN1CCC(O)C1)c1ccc(C2CC2)c(OCC2CC2)n1` (single isomer, unassigned; (-)) [Example 380], the pEC50 in test [1] (setting [3]) was 6.23; in test [2], under 5.00.

On to `COC(=O)C(C)(C)NC(=O)c1cccc(-c2cccc(Cl)c2)n1` [Example 1, Methyl 2-(6-(3-chlorophenyl)picolinamido)-2-methylpropanoate], for which the pEC50 in test [1] (setting [3]) is 7.16.

Regarding `COC(=O)C(C)(C)NC(=O)c1cccc(-c2ccccc2Cl)n1` [Example 2, Methyl 2-(6-(2-chlorophenyl)picolinamido)-2-methylpropanoate], the pEC50 in test [1] (setting [3]) is 7.24. As for `Cc1nc(C(C)(C)NC(=O)c2cccc(-c3ccc(Cl)cc3)n2)no1` [Example 3, 6-(4-Chloro-phenyl)-pyridine-2-carboxylic acid [1-methyl-1-(5-methyl-[1,2,4]oxadiazol-3-yl)-ethyl]-amide], the pEC50 in test [1] (setting [3]) was 6.47; in test [2] it was under 5.00. In the case of `COC(=O)C(C)(C)NC(=O)c1ccc(C)c(OCC(F)(F)F)n1` [Example 4, Methyl 2-methyl-2-(5-methyl-6-(2,2,2-trifluoroethoxy)picolinamido)propanoate], the pEC50 in test [1] (setting [3]) is 7.11.

In the case of `COC(=O)C(C)(C)NC(=O)c1ccc(C2CC2)c(Nc2ccc(Cl)cc2Cl)n1` [Example 5, Methyl 2-(5-cyclopropyl-6-(2,4-dichlorophenylamino)picolinamido)-2-methylpropanoate], the pEC50 in test [1] (setting [3]) was 6.36. Still for that read-out and setting: with `COC(=O)C(C)(C)NC(=O)c1ccc(C)c(Nc2ccc(Cl)cc2Cl)n1` [Example 6, Methyl 2-(6-(2,4-dichlorophenylamino)-5-methylpicolinamido)-2-methylpropanoate] the figure was 6.42; with `COC(=O)C(C)(C)NC(=O)c1cccc(C2CCCCC2)n1` [Example 7, 2-[(6-Cyclohexyl-pyridine-2-carbonyl)-amino]-2-methyl-propionic acid methyl ester], 7.49. As for `CC(C)(NC(=O)c1cccc(-c2cccc(Cl)c2)n1)c1ncco1` [Example 8, 6-(3-Chloro-phenyl)-pyridine-2-carboxylic acid (1-methyl-1-oxazol-2-yl-ethyl)-amide], the pEC50 in test [1] (setting [3]) is 7.00; in test [2], under 5.00. On the same counts, the results for `COC(=O)C(C)(C)NC(=O)c1ccc(C2CCOCC2)c(OCC2CC2)n1` [Example 9, 2-{[6-Cyclopropylmethoxy-5-(tetrahydro-pyran-4-yl)-pyridine-2-carbonyl]-amino}-2-methyl-propionic acid methyl ester] are 7.25 and under 5.00. On the same counts, the results for `Cc1nc(C(C)(C)NC(=O)c2ccc(C3CCOCC3)c(OCC3CC3)n2)no1` [Example 10, 6-Cyclopropylmethoxy-5-(tetrahydro-pyran-4-yl)-pyridine-2-carboxylic acid [1-methyl-1-(5-methyl-[1,2,4]oxadiazol-3-yl)-ethyl]-amide] are 7.05 and under 5.00. The corresponding values for `O=C(NN1CCCCC1)c1cccc(-c2cccc(Cl)c2)n1` [Example 11, 6-(3-Chloro-phenyl)-pyridine-2-carboxylic acid piperidin-1-ylamide] are 7.20 and under 5.00. `CC(C)(NC(=O)c1cccc(-c2cccc(Cl)c2)n1)c1nccs1` [Example 12, 6-(3-Chloro-phenyl)-pyridine-2-carboxylic acid (1-methyl-1-thiazol-2-yl-ethyl)-amide]: the values for the pEC50 in test [1] (setting [3]) and in test [2] were 6.98 and under 5.00, respectively. The corresponding values for `COC(=O)C(C)(C)NC(=O)c1ccc(-c2cc[nH]n2)c(OCC2CC2)n1` [Example 13, 2-{[6-Cyclopropylmethoxy-5-(1H-pyrazol-3-yl)-pyridine-2-carbonyl]-amino}-2-methyl-propionic acid methyl ester] are 6.37 and under 5.00. The corresponding values for `CC(C)C[C@@H](CO)NC(=O)c1ccc(N2CCCC2)c(OCC2CC2)n1` [Example 14, 6-Cyclopropylmethoxy-5-pyrrolidin-1-yl-pyridine-2-carboxylic acid ((S)-1-hydroxymethyl-3-methyl-butyl)-amide] are 8.52 and under 5.00.

For the molecule `O=C(c1ccc(N2CCCC2)c(OCC2CC2)n1)N1CCS(=O)(=O)CC1` [Example 15], the values for the pEC50 in test [1] (setting [3]) and in test [2] were 7.02 and under 5.00, respectively.

In the case of `O=C(c1ccc(N2CCCC2)c(OCC2CC2)n1)N1CCSCC1` [Example 16, (6-Cyclopropylmethoxy-5-pyrrolidin-1-yl-pyridin-2-yl)-thiomorpholin-4-yl-methanone], the pEC50 in test [1] (setting [3]) was 7.78; in test [2], under 5.00. On the same counts, the results for `CC(C)(NC(=O)c1cccc(-c2cccc(Cl)c2)n1)c1nnco1` [Example 17, 6-(3-Chloro-phenyl)-pyridine-2-carboxylic acid (1-methyl-1-[1,3,4]oxadiazol-2-yl-ethyl)-amide] are 6.25 and under 5.00. In the case of `O=C(NC1CCCCC1)c1cccc(-c2cccc(Cl)c2)n1` [Example 18, 6-(3-Chloro-phenyl)-pyridine-2-carboxylic acid cyclohexylamide], the pEC50 was 7.01 in test [1] (setting [3]) and under 5.00 in test [2]. The corresponding values for `O=C(Nc1ccccc1)c1cccc(-c2cccc(Cl)c2)n1` [Example 19, 6-(3-Chloro-phenyl)-pyridine-2-carboxylic acid phenylamide] are 6.38 and under 5.00. Turning to `O=C(Nc1ccccn1)c1cccc(-c2cccc(Cl)c2)n1` [Example 20, 6-(3-Chloro-phenyl)-pyridine-2-carboxylic acid pyridin-2-ylamide], the figures for the pEC50 in test [1] (setting [3]) and in test [2] were 6.58 and under 5.00, respectively. The corresponding values for `O=C(NC1CCOCC1)c1cccc(-c2cccc(Cl)c2)n1` [Example 21, 6-(3-Chloro-phenyl)-pyridine-2-carboxylic acid (tetrahydro-pyran-4-yl)-amide] are 6.66 and under 5.00. On the same counts, the results for `Cc1nsc(C(C)(C)NC(=O)c2cccc(-c3cccc(Cl)c3)n2)n1` [Example 22, 6-(3-Chloro-phenyl)-pyridine-2-carboxylic acid [1-methyl-1-(3-methyl-[1,2,4]thiadiazol-5-yl)-ethyl]-amide] are 6.20 and under 5.00. On to `CCC(CC)(NC(=O)c1cccc(-c2cccc(Cl)c2)n1)C(=O)N(C)C` [Example 23, 6-(3-Chloro-phenyl)-pyridine-2-carboxylic acid (1-dimethylcarbamoyl-1-ethyl-propyl)-amide], for which the pEC50 is 7.32 in test [1] (setting [3]) and under 5.00 in test [2]. On the same counts, the results for `O=C(NN1CCCCC1)c1cccc(C2CCCCC2)n1` [Example 24, 6-Cyclohexyl-pyridine-2-carboxylic acid piperidin-1-ylamide] are 7.81 and under 5.00.

As for `Cc1ccc(C(=O)N2CCCCC2)nc1S(=O)(=O)N1CCCCC1` [Example 25, [5-Methyl-6-(piperidine-1-sulfonyl)-pyridin-2-yl]-piperidin-1-yl-methanone], the figures for the pEC50 in test [1] (setting [3]) and in test [2] were 6.54 and under 5.00, respectively.

As for `CC1CC(NC(=O)c2cccc(-c3cccc(Cl)c3)n2)CCO1` (stereo not shown) [Example 26, 6-(3-Chloro-phenyl)-pyridine-2-carboxylic acid (2-methyl-tetrahydro-pyran-4-yl)-amide], the pEC50 in test [1] (setting [3]) is 6.16; in test [2], under 5.00. On the same counts, the results for `COC(=O)C(C)(C)NC(=O)c1ccc(N2CCCC2)c(OCC2CC2)n1` [Example 27, 2-[(6-Cyclopropylmethoxy-5-pyrrolidin-1-yl-pyridine-2-carbonyl)-amino]-2-methyl-propionic acid methyl ester] are 8.34 and under 5.00.

As to `Cc1cc(C(C)(C)NC(=O)c2cccc(-c3cccc(Cl)c3)n2)on1` [Example 28, 6-(3-Chloro-phenyl)-pyridine-2-carboxylic acid [1-methyl-1-(3-methyl-isoxazol-5-yl)-ethyl]-amide], the results for the pEC50 in test [1] (setting [3]) and in test [2] were 6.25 and under 5.00, respectively.
